Test results: the NIST ThermoML archive (doi:10.1021/je100057b)
“And” between values parts separate entries of the source, which are not always exact repeats. Equal entries are not always repeated. ± gives the expanded uncertainty stated by the source.

Details: Liquid, Falling or rolling sphere viscometry

CCCCC(=O)OCC(COCC(COC(=O)CCCC)(COC(=O)CCCC)COC(=O)CCCC)(COC(=O)CCCC)COC(=O)CCCC
viscosity (283.15 K, 101.33 kPa): 259 ± 18 mPa·s and 257.9 ± 18 mPa·s | viscosity (288.15 K, 101.33 kPa): 189.2 ± 12 mPa·s and 188.5 ± 12 mPa·s | viscosity (293.15 K, 101.33 kPa): 141.2 ± 8 mPa·s and 140.8 ± 8 mPa·s | viscosity (298.15 K, 101.33 kPa): 107.6 ± 5.7 mPa·s and 107.3 ± 5.7 mPa·s | viscosity (303.15 K, 100 kPa): 85.9 ± 4.3 mPa·s | viscosity (303.15 K, 101.33 kPa): 83.52 ± 4.2 mPa·s and 83.31 ± 4.1 mPa·s | viscosity (303.15 K, 1000 kPa): 87.2 ± 4.4 mPa·s | viscosity (303.15 K, 5000 kPa): 93.2 ± 4.7 mPa·s | viscosity (303.15 K, 10000 kPa): 101 ± 5 mPa·s | viscosity (303.15 K, 20000 kPa): 119 ± 6 mPa·s | viscosity (303.15 K, 30000 kPa): 139 ± 8 mPa·s | viscosity (303.15 K, 40000 kPa): 163 ± 10 mPa·s | viscosity (303.15 K, 50000 kPa): 189 ± 12 mPa·s | viscosity (303.15 K, 60000 kPa): 219 ± 14 mPa·s | viscosity (308.15 K, 101.33 kPa): 65.88 ± 3.2 mPa·s and 65.72 ± 3.1 mPa·s | viscosity (313.15 K, 100 kPa): 54.3 ± 2.6 mPa·s | viscosity (313.15 K, 101.33 kPa): 52.73 ± 2.5 mPa·s and 52.64 ± 2.5 mPa·s | viscosity (313.15 K, 1000 kPa): 55.1 ± 2.6 mPa·s | viscosity (313.15 K, 5000 kPa): 58.8 ± 2.8 mPa·s | viscosity (313.15 K, 10000 kPa): 63.6 ± 3 mPa·s | viscosity (313.15 K, 20000 kPa): 74.4 ± 3.6 mPa·s | viscosity (313.15 K, 30000 kPa): 86.6 ± 4.3 mPa·s | viscosity (313.15 K, 40000 kPa): 100 ± 5 mPa·s | viscosity (313.15 K, 50000 kPa): 116 ± 6 mPa·s | viscosity (313.15 K, 60000 kPa): 133 ± 7 mPa·s | viscosity (318.15 K, 101.33 kPa): 42.8 ± 2 mPa·s and 42.75 ± 2 mPa·s | viscosity (323.15 K, 101.33 kPa): 35.18 ± 1.7 mPa·s and 35.15 ± 1.7 mPa·s | viscosity (328.15 K, 101.33 kPa): 29.24 ± 1.4 mPa·s and 29.25 ± 1.4 mPa·s | viscosity (333.15 K, 100 kPa): 25 ± 1.2 mPa·s | viscosity (333.15 K, 101.33 kPa): 24.55 ± 1.2 mPa·s and 24.59 ± 1.2 mPa·s | viscosity (333.15 K, 1000 kPa): 25.4 ± 1.2 mPa·s | viscosity (333.15 K, 5000 kPa): 26.9 ± 1.3 mPa·s | viscosity (333.15 K, 10000 kPa): 29 ± 1.4 mPa·s | viscosity (333.15 K, 20000 kPa): 33.6 ± 1.6 mPa·s | viscosity (333.15 K, 30000 kPa): 38.6 ± 1.8 mPa·s | viscosity (333.15 K, 40000 kPa): 44.2 ± 2.1 mPa·s | viscosity (333.15 K, 50000 kPa): 50.3 ± 2.4 mPa·s | viscosity (333.15 K, 60000 kPa): 56.9 ± 2.7 mPa·s | viscosity (338.15 K, 101.33 kPa): 20.81 ± 0.99 mPa·s and 20.88 ± 1 mPa·s | viscosity (343.15 K, 101.33 kPa): 17.79 ± 0.85 mPa·s and 17.88 ± 0.85 mPa·s | viscosity (348.15 K, 101.33 kPa): 15.34 ± 0.73 mPa·s and 15.44 ± 0.74 mPa·s | viscosity (353.15 K, 100 kPa): 13.5 ± 0.7 mPa·s | viscosity (353.15 K, 101.33 kPa): 13.33 ± 0.64 mPa·s and 13.42 ± 0.64 mPa·s | viscosity (353.15 K, 1000 kPa): 13.6 ± 0.7 mPa·s | viscosity (353.15 K, 5000 kPa): 14.4 ± 0.7 mPa·s | viscosity (353.15 K, 10000 kPa): 15.45 ± 0.74 mPa·s | viscosity (353.15 K, 20000 kPa): 17.7 ± 0.8 mPa·s | viscosity (353.15 K, 30000 kPa): 20.1 ± 1 mPa·s | viscosity (353.15 K, 40000 kPa): 22.8 ± 1.1 mPa·s | viscosity (353.15 K, 50000 kPa): 25.7 ± 1.2 mPa·s | viscosity (353.15 K, 60000 kPa): 28.8 ± 1.4 mPa·s | viscosity (358.15 K, 101.33 kPa): 11.66 ± 0.56 mPa·s and 11.76 ± 0.56 mPa·s | viscosity (363.15 K, 101.33 kPa): 10.26 ± 0.49 mPa·s and 10.36 ± 0.49 mPa·s | viscosity (368.15 K, 101.33 kPa): 9.08 ± 0.43 mPa·s and 9.18 ± 0.44 mPa·s | viscosity (373.15 K, 100 kPa): 8.22 ± 0.39 mPa·s | viscosity (373.15 K, 101.33 kPa): 8.09 ± 0.39 mPa·s and 8.18 ± 0.39 mPa·s | viscosity (373.15 K, 1000 kPa): 8.32 ± 0.4 mPa·s | viscosity (373.15 K, 5000 kPa): 8.78 ± 0.42 mPa·s | viscosity (373.15 K, 10000 kPa): 9.38 ± 0.45 mPa·s | viscosity (373.15 K, 20000 kPa): 10.6 ± 0.5 mPa·s | viscosity (373.15 K, 30000 kPa): 12 ± 0.6 mPa·s | viscosity (373.15 K, 40000 kPa): 13.5 ± 0.6 mPa·s | viscosity (373.15 K, 50000 kPa): 15.2 ± 0.7 mPa·s | viscosity (373.15 K, 60000 kPa): 16.9 ± 0.8 mPa·s

CCCCCCC(=O)OCC(COCC(COC(=O)CCCCCC)(COC(=O)CCCCCC)COC(=O)CCCCCC)(COC(=O)CCCCCC)COC(=O)CCCCCC [dipentaerythritol hexaheptanoate]
viscosity (283.15 K, 101.33 kPa): 260.7 ± 18 mPa·s and 259.1 ± 18 mPa·s | viscosity (288.15 K, 101.33 kPa): 191.1 ± 12 mPa·s and 190 ± 12 mPa·s | viscosity (293.15 K, 101.33 kPa): 143.1 ± 8.2 mPa·s and 142.2 ± 8.1 mPa·s | viscosity (298.15 K, 101.33 kPa): 109.2 ± 5.8 mPa·s and 108.5 ± 5.7 mPa·s | viscosity (303.15 K, 100 kPa): 86.3 ± 4.3 mPa·s | viscosity (303.15 K, 101.33 kPa): 84.89 ± 4.2 mPa·s and 84.39 ± 4.2 mPa·s | viscosity (303.15 K, 1000 kPa): 87.7 ± 4.4 mPa·s | viscosity (303.15 K, 5000 kPa): 93.9 ± 4.8 mPa·s | viscosity (303.15 K, 10000 kPa): 102 ± 5 mPa·s | viscosity (303.15 K, 20000 kPa): 121 ± 7 mPa·s | viscosity (303.15 K, 30000 kPa): 142 ± 8 mPa·s | viscosity (303.15 K, 40000 kPa): 167 ± 10 mPa·s | viscosity (303.15 K, 50000 kPa): 194 ± 12 mPa·s | viscosity (303.15 K, 60000 kPa): 226 ± 15 mPa·s | viscosity (308.15 K, 101.33 kPa): 67.04 ± 3.2 mPa·s and 66.67 ± 3.2 mPa·s | viscosity (313.15 K, 100 kPa): 55.8 ± 2.7 mPa·s | viscosity (313.15 K, 101.33 kPa): 53.73 ± 2.5 mPa·s and 53.45 ± 2.5 mPa·s | viscosity (313.15 K, 1000 kPa): 56.6 ± 2.7 mPa·s | viscosity (313.15 K, 5000 kPa): 60.3 ± 2.9 mPa·s | viscosity (313.15 K, 10000 kPa): 65.3 ± 3.1 mPa·s | viscosity (313.15 K, 20000 kPa): 76.3 ± 3.7 mPa·s | viscosity (313.15 K, 30000 kPa): 88.9 ± 4.5 mPa·s | viscosity (313.15 K, 40000 kPa): 103 ± 5 mPa·s | viscosity (313.15 K, 50000 kPa): 119 ± 6 mPa·s | viscosity (313.15 K, 60000 kPa): 138 ± 8 mPa·s | viscosity (318.15 K, 101.33 kPa): 43.66 ± 2.1 mPa·s and 43.45 ± 2.1 mPa·s | viscosity (323.15 K, 101.33 kPa): 35.93 ± 1.7 mPa·s and 35.77 ± 1.7 mPa·s | viscosity (328.15 K, 101.33 kPa): 29.91 ± 1.4 mPa·s and 29.79 ± 1.4 mPa·s | viscosity (333.15 K, 100 kPa): 25.5 ± 1.2 mPa·s | viscosity (333.15 K, 101.33 kPa): 25.18 ± 1.2 mPa·s and 25.07 ± 1.2 mPa·s | viscosity (333.15 K, 1000 kPa): 25.9 ± 1.3 mPa·s | viscosity (333.15 K, 5000 kPa): 27.5 ± 1.3 mPa·s | viscosity (333.15 K, 10000 kPa): 29.6 ± 1.4 mPa·s | viscosity (333.15 K, 20000 kPa): 34.3 ± 1.6 mPa·s | viscosity (333.15 K, 30000 kPa): 39.5 ± 1.9 mPa·s | viscosity (333.15 K, 40000 kPa): 45.3 ± 2.2 mPa·s | viscosity (333.15 K, 50000 kPa): 51.7 ± 2.4 mPa·s | viscosity (333.15 K, 60000 kPa): 58.8 ± 2.8 mPa·s | viscosity (338.15 K, 101.33 kPa): 21.39 ± 1 mPa·s and 21.31 ± 1 mPa·s | viscosity (343.15 K, 101.33 kPa): 18.32 ± 0.87 mPa·s and 18.27 ± 0.87 mPa·s | viscosity (348.15 K, 101.33 kPa): 15.82 ± 0.75 mPa·s and 15.79 ± 0.75 mPa·s | viscosity (353.15 K, 100 kPa): 13.8 ± 0.7 mPa·s | viscosity (353.15 K, 101.33 kPa): 13.77 ± 0.66 mPa·s and 13.75 ± 0.66 mPa·s | viscosity (353.15 K, 1000 kPa): 14 ± 0.7 mPa·s | viscosity (353.15 K, 5000 kPa): 14.8 ± 0.7 mPa·s | viscosity (353.15 K, 10000 kPa): 15.9 ± 0.8 mPa·s | viscosity (353.15 K, 20000 kPa): 18.2 ± 0.9 mPa·s | viscosity (353.15 K, 30000 kPa): 20.8 ± 1 mPa·s | viscosity (353.15 K, 40000 kPa): 23.6 ± 1.1 mPa·s | viscosity (353.15 K, 50000 kPa): 26.6 ± 1.3 mPa·s | viscosity (353.15 K, 60000 kPa): 30 ± 1.4 mPa·s | viscosity (358.15 K, 101.33 kPa): 12.06 ± 0.58 mPa·s | viscosity (363.15 K, 101.33 kPa): 10.64 ± 0.51 mPa·s | viscosity (368.15 K, 101.33 kPa): 9.44 ± 0.45 mPa·s and 9.45 ± 0.45 mPa·s | viscosity (373.15 K, 100 kPa): 8.46 ± 0.4 mPa·s | viscosity (373.15 K, 101.33 kPa): 8.42 ± 0.4 mPa·s and 8.43 ± 0.4 mPa·s | viscosity (373.15 K, 1000 kPa): 8.56 ± 0.41 mPa·s | viscosity (373.15 K, 5000 kPa): 9.04 ± 0.43 mPa·s | viscosity (373.15 K, 10000 kPa): 9.66 ± 0.46 mPa·s | viscosity (373.15 K, 20000 kPa): 11 ± 0.5 mPa·s | viscosity (373.15 K, 30000 kPa): 12.4 ± 0.6 mPa·s | viscosity (373.15 K, 40000 kPa): 14 ± 0.7 mPa·s | viscosity (373.15 K, 50000 kPa): 15.7 ± 0.8 mPa·s | viscosity (373.15 K, 60000 kPa): 17.5 ± 0.8 mPa·s
